In ChEMBL document CHEMBL1158584, “Mono-, di-, and triaryl substituted tetrahydropyrans as cyclooxygenase-2 and tumor growth inhibitors. Synthesis and biological evaluation” (J Med Chem, 2010):

How the values were obtained:
[1] = target: T1, Prostaglandin G/H synthase 1 (Ovis aries, UniProt P05979); assay: Inhibition of ovine COX1 assessed as inhibition of PGF2a formation after 20 mins by Ellman's method
T1 sequence (P05979 whole entry): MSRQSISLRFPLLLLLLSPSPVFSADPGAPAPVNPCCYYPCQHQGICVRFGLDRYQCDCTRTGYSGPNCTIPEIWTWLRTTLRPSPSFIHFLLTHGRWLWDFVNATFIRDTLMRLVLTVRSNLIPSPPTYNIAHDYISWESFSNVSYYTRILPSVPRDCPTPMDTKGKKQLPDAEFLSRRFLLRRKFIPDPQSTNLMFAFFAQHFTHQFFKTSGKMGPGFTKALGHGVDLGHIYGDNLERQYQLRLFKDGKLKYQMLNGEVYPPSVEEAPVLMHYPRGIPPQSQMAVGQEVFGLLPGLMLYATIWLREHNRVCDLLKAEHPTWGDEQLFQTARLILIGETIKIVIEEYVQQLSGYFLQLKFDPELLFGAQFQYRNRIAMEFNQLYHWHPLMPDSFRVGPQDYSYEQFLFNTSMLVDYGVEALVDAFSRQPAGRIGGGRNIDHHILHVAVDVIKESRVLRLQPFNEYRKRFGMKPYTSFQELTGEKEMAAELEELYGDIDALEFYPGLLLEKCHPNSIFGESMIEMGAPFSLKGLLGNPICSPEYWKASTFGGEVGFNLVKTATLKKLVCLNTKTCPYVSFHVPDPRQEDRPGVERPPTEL

[2] = target: T2, Prostaglandin G/H synthase 1 (Ovis aries) (UniProt P05979); assay: Inhibition of ovine COX1 assessed as inhibition of PGF2a formation at 10 uM after 20 mins by Ellman's method
T2 sequence (whole entry): T1 sequence (P05979 whole entry)

[3] = target: T2, Prostaglandin G/H synthase 1 (Ovis aries); assay: Inhibition of ovine COX1 assessed as inhibition of PGF2a formation at 1 uM after 20 mins by Ellman's method
[4] = target: T2, Prostaglandin G/H synthase 1 (Ovis aries); assay: Inhibition of ovine COX1 assessed as inhibition of PGF2a formation at 100 nM after 20 mins by Ellman's method
[5] = target: T2, Prostaglandin G/H synthase 1 (Ovis aries); assay: Inhibition of ovine COX1 assessed as inhibition of PGF2a formation at 100 uM after 20 mins by Ellman's method
[6] = target: T2, Prostaglandin G/H synthase 1 (Ovis aries); assay: Inhibition of ovine COX1 assessed as inhibition of PGF2a formation at 0.01 uM after 20 mins by Ellman's method
[7] = Growth inhibition of human NCI60 cells after 48 hrs by sulforhodamine B assay; assay type: functional; settings: NCI60, 48 h

IC50 [1] [nM] | inhibition [2] [%] | inhibition [3] [%] | inhibition [4] [%] | inhibition [5] [%] | inhibition [6] [%] | Structure (SMILES) | GI50 [7] [nM] | CC50 ([7]; read-out: LC50 (the source's name)) [nM]
209 | 94 | 65 | 48 |  |  | N#CSC[C@@H]1C[C@@](O)(c2ccccc2)C[C@H](c2ccc(Br)cc2)O1 (relative stereo) |  | 
13900 | 38 | 16 |  | 52 |  | CCSC[C@@H]1C[C@](O)(c2ccccc2)[C@@H](c2ccccc2)[C@H](c2ccccc2)O1 (relative stereo) |  | 
413 | 94 | 60 | 45 |  |  | CCSC[C@@H]1C[C@@](O)(c2ccccc2)C[C@H](c2ccc(Cl)cc2)O1 (relative stereo) |  | 
368 | 60 | 55 | 38 | 65 | 32 | C[C@H]1C[C@](O)(c2ccccc2)C[C@@H](CSC#N)O1 (relative stereo) |  | 
2930 | 94 | 37 | 25 |  |  | CCSC[C@@H]1C[C@@](O)(c2ccccc2)C[C@H](c2ccccc2)O1 (relative stereo) |  | 

The next lines start with the compound.

Structure (SMILES) | IC50 [1] [nM] | inhibition [2] [%] | inhibition [3] [%] | inhibition [4] [%] | inhibition [5] [%] | inhibition [6] [%] | GI50 [7] [nM] | CC50 ([7]; read-out: LC50 (the source's name)) [nM]
N#CSC[C@@H]1C[C@](O)(c2ccccc2)[C@@H](c2ccccc2)[C@H](c2ccccc2)O1 (relative stereo) | 64000 | 27 | 24 |  | 50 |  |  | 
CCSC[C@@H]1C[C@@](O)(c2ccccc2)C[C@H](c2ccc(Br)cc2)O1 (relative stereo) | 562 | 94 | 58 | 40 |  |  |  | 
N#CSC[C@@H]1C[C@](O)(c2ccccc2)[C@@H](c2ccccc2)[C@H](c2ccc(Br)cc2)O1 (relative stereo) | 13000 | 29 | 28 |  | 50 |  |  | 
N#CSC[C@@H]1C[C@@](O)(c2ccccc2)C[C@H](c2ccccc2)O1 (relative stereo) | 2790 | 94 | 39 | 26 |  |  |  | 
CCSC[C@@H]1C[C@@](O)(c2ccccc2)C[C@H](C)O1 (relative stereo) | 347 | 55 | 51 | 40 | 62 | 32 |  | 
CCSC[C@@H]1C[C@](O)(c2ccccc2)[C@@H](c2ccccc2)[C@H](c2ccc(Br)cc2)O1 (relative stereo) | 23800 | 38 | 41 |  | 60 |  |  | 
Cc1ccc(-c2cc(C(F)(F)F)nn2-c2ccc(S(N)(=O)=O)cc2)cc1 [CELECOXIB] |  |  |  |  |  |  | 17500 | 63300
